Source: patent US20260365653A1, “IRREVERSIBLE MUTEGFR INHIBITORS” (Bayer Aktiengesellschaft, priority 2022, published 2026)

How the values were obtained:
[1] = target: T1, mutEGFR (D770_N771insSVD) (Homo sapiens, UniProt P00533, DUP768-770); test: Exon20-Mutant-EGFR (D770_N771insSVD) kinase assay (TR-FRET); assay type: biochemical; settings: mutEGFR (D770_N771insSVD) kinase assay IC50, Table 2a; D770_N771insSVD; 2 mM ATP
T1 construct: GST-EGFR #3 (SVD between D770 and N771); made in house; host or cells: Sf9 insect cells (baculovirus)

[2] = target: T2, mutEGFR (D770_N771insNPG, T790) (Homo sapiens, UniProt P00533, INS770NPG/T790M); test: mutEGFR (D770_N771insNPG, T790) kinase assay; assay type: biochemical; settings: Table 2a, D770_N771insNPG
T2 construct: exact insNPG construct not described; in-house EGFR proteins were N-terminal GST fusions from baculovirus/insect cells (borders R669-A1210 given only for WT, insSVD, insASV)
From the text: The different EGFR proteins used in the biochemical kinase activity inhibition assays were generated inhouse by expression in insect cells using Baculo Virus system and subsequent purification as described in the following paragraphs.
The cDNAs encoding the various protein sequences from human EGFR human (P00533) were optimized for expression in eukaryotic cells and synthesized by the GeneArt Technology at Life Technologies.

[3] = system: BA/F3 (insSVD) cells; test: Ba/F3-EGFR-insSVD cell survival assay (Cell Titer-Glo); assay type: cell-based; settings: Mus musculus, BaF3, 48 h, Table 3a, cell survival, Cell Titer-Glo, with 10 ng/ml EGF, without IL-3
In short: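 Ba/F3 cells stably expressing retroviral EGFR-insSVD or insSVD T790M, grown without IL-3 on 10 ng/ml EGF, 4000 cells/well. Compound pinned in, 48 h at 37° C. Viability by CellTiter-Glo luminescence.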

T1 sequence (P00533 with tags, fused parts or gaps DUP768-770): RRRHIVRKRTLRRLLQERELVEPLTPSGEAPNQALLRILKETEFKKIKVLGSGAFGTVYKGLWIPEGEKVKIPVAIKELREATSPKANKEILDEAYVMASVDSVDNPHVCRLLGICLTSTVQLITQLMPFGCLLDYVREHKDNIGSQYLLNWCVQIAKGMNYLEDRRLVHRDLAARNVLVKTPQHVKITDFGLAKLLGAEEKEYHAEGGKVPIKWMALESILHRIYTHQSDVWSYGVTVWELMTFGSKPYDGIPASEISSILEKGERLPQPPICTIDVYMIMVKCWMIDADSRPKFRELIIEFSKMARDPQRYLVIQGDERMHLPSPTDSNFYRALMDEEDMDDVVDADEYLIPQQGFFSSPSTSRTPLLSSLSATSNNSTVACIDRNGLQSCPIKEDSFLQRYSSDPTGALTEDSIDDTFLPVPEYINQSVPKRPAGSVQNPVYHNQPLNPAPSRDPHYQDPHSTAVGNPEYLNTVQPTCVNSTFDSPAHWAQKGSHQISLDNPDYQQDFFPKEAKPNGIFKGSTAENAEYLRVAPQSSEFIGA
T2 sequence (P00533 with tags, fused parts or gaps INS770NPG/T790M limits assumed): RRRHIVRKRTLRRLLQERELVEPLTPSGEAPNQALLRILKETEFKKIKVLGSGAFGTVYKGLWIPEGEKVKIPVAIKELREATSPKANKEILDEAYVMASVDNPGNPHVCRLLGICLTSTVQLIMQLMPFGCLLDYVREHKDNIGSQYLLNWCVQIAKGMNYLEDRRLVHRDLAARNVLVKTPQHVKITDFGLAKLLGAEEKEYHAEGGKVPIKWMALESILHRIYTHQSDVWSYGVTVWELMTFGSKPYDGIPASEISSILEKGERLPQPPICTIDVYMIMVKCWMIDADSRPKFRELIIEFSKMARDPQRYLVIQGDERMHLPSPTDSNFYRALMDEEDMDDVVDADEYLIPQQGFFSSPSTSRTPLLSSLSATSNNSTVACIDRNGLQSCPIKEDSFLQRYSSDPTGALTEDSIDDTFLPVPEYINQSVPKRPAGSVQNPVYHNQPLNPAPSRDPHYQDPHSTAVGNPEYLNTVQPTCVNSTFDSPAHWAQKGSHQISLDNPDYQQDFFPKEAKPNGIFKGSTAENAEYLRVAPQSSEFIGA

SMILES	IC50 [1] [nM]	IC50 [2] [nM]	IC50 [3] [nM]
C=CC(=O)N1CCn2nc(-c3ccc(C)cc3F)c(-c3ccnc4[nH]ccc34)c2C1 [Example 102, 1-[2-(2-fluoro-4-methylphenyl)-3-(1H-pyrrolo[2,3-b]pyridin-4-yl)-6,7-dihydropyrazolo[1,5-a]pyrazin-5(4H)-yl]prop-2-en-1-one]	4.77	22.8	49.8
CN(C)C/C=C/C(=O)N1CCn2nc(-c3ccc(Cl)cc3F)c(-c3ccnc4[nH]ccc34)c2C1 [Example 103, (2E)-1-[2-(4-chloro-2-fluorophenyl)-3-(1H-pyrrolo[2,3-b]pyridin-4-yl)-6,7-dihydropyrazolo[1,5-a]pyrazin-5(4H)-yl]-4-(dimethylamino)but-2-en-1-one]	3.7	25.2	122
C=CC(=O)N1CCn2nc(-c3ccc(Cl)cc3F)c(-c3ccnc4[nH]ccc34)c2C1 [Example 104, 1-[2-(4-chloro-2-fluorophenyl)-3-(1H-pyrrolo[2,3-b]pyridin-4-yl)-6,7-dihydropyrazolo[1,5-a]pyrazin-5(4H)-yl]prop-2-en-1-one]	1.66	9.09	32
C=CC(=O)N1CCn2nc(-c3ccc(F)c4ccoc34)c(-c3ccncc3)c2C1 [Example 105, 1-[2-(4-fluoro-1-benzofuran-7-yl)-3-(pyridin-4-yl)-6,7-dihydropyrazolo[1,5-a]pyrazin-5(4H)-yl]prop-2-en-1-one]	1.48	1.57	233
C=CC(=O)N1CCn2nc(-c3ccc(F)c4ccccc34)c(-c3ccncc3)c2C1 [Example 106, 1-[2-(4-fluoronaphthalen-1-yl)-3-(pyridin-4-yl)-6,7-dihydropyrazolo[1,5-a]pyrazin-5(4H)-yl]prop-2-en-1-one]	0.528	0.546	214
C=CC(=O)N1CCn2nc(-c3cccc4ccoc34)c(-c3ccncc3)c2C1 [Example 107]	0.844	0.564	41.4
C=CC(=O)N1CCn2nc(-c3ccc4c(C)c[nH]c4c3)c(-c3ccncc3)c2C1 [Example 108, 1-[2-(3-methyl-1H-indol-6-yl)-3-(pyridin-4-yl)-6,7-dihydropyrazolo[1,5-a]pyrazin-5(4H)-yl]prop-2-en-1-one]	0.351	0.425	33.3
C=CC(=O)N1CCn2nc(-c3cc4ccccc4cc3F)c(-c3ccncc3)c2C1 [Example 109, 1-[2-(3-fluoronaphthalen-2-yl)-3-(pyridin-4-yl)-6,7-dihydropyrazolo[1,5-a]pyrazin-5(4H)-yl]prop-2-en-1-one]	0.111	0.149	42
C=CC(=O)N1CCn2nc(-c3ccc(C)cc3F)c(-c3ccncc3)c2C1 [Example 110, 1-[2-(2-fluoro-4-methylphenyl)-3-(pyridin-4-yl)-6,7-dihydropyrazolo[1,5-a]pyrazin-5(4H)-yl]prop-2-en-1-one]	0.75	1.93	33.2
C=CC(=O)N1CCn2nc(-c3ccc4ccccc4c3F)c(-c3ccncc3)c2C1 [Example 111, 1-[2-(1-fluoronaphthalen-2-yl)-3-(pyridin-4-yl)-6,7-dihydropyrazolo[1,5-a]pyrazin-5(4H)-yl]prop-2-en-1-one]	0.13	0.259	27.5
C=CC(=O)N1CCn2nc(-c3cc4ccoc4cc3F)c(-c3ccncc3)c2C1 [Example 112, 1-[2-(6-fluoro-1-benzofuran-5-yl)-3-(pyridin-4-yl)-6,7-dihydropyrazolo[1,5-a]pyrazin-5(4H)-yl]prop-2-en-1-one]	0.196	0.448	20.3
C=CC(=O)N1CCn2nc(-c3ccc(C)cc3O)c(-c3ccncc3)c2C1 [Example 113, 1-[2-(2-hydroxy-4-methylphenyl)-3-(pyridin-4-yl)-6,7-dihydropyrazolo[1,5-a]pyrazin-5(4H)-yl]prop-2-en-1-one]	1.76	3.91	55.5
C=CC(=O)N1CCn2nc(-c3ccc4cc[nH]c4c3F)c(-c3ccncc3)c2C1 [Example 114]	0.144	0.218	13.7
C=CC(=O)N1CCn2nc(-c3ccc(Cl)cc3Cl)c(-c3ccncc3)c2C1 [Example 115, 1-[2-(2,4-dichlorophenyl)-3-(pyridin-4-yl)-6,7-dihydropyrazolo[1,5-a]pyrazin-5(4H)-yl]prop-2-en-1-one]	0.22	0.949	42.2
C=CC(=O)N1CCn2nc(-c3ccc(Cl)cc3OC)c(-c3ccncc3)c2C1 [Example 116, 1-[2-(4-chloro-2-methoxyphenyl)-3-(pyridin-4-yl)-6,7-dihydropyrazolo[1,5-a]pyrazin-5(4H)-yl]prop-2-en-1-one]	8.38	11.5	635
C=CC(=O)N1CCn2nc(-c3ccc(Cl)cc3C)c(-c3ccncc3)c2C1 [Example 117, 1-[2-(4-chloro-2-methylphenyl)-3-(pyridin-4-yl)-6,7-dihydropyrazolo[1,5-a]pyrazin-5(4H)-yl]prop-2-en-1-one]	0.384	1.86	54.5
C=CC(=O)N1CCn2nc(-c3ccc(Cl)c(C#N)c3)c(-c3ccncc3)c2C1 [Example 118, 2-chloro-5-[5-(prop-2-enoyl)-3-(pyridin-4-yl)-4,5,6,7-tetrahydropyrazolo[1,5-a]pyrazin-2-yl]benzonitrile]	8.55	4.9	183
C=CC(=O)N1CCn2nc(-c3ccc(F)c(C#N)c3)c(-c3ccncc3)c2C1 [Example 119, 2-fluoro-5-[5-(prop-2-enoyl)-3-(pyridin-4-yl)-4,5,6,7-tetrahydropyrazolo[1,5-a]pyrazin-2-yl]benzonitrile]	23.2	7.03	153
C=CC(=O)N1CCn2nc(-c3cccc(C#N)c3F)c(-c3ccncc3)c2C1 [Example 120, 2-fluoro-3-[5-(prop-2-enoyl)-3-(pyridin-4-yl)-4,5,6,7-tetrahydropyrazolo[1,5-a]pyrazin-2-yl]benzonitrile]	50.5	50.3	933
C=CC(=O)N1Cc2c(-c3ccncc3)c(-c3ccc(Cl)cc3)nn2C[C@@H]1C [Example 122, 1-[(6S)-2-(4-chlorophenyl)-6-methyl-3-(pyridin-4-yl)-6,7-dihydropyrazolo[1,5-a]pyrazin-5(4H)-yl]prop-2-en-1-one]	0.369	0.803	13.8
C=CC(=O)N1Cc2c(-c3ccncc3)c(-c3ccc(Cl)cc3)nn2C[C@H]1C [Example 123, 1-[(6R)-2-(4-chlorophenyl)-6-methyl-3-(pyridin-4-yl)-6,7-dihydropyrazolo[1,5-a]pyrazin-5(4H)-yl]prop-2-en-1-one]	1.19	1.95	23.7
C=CC(=O)N1Cc2c(-c3ccncc3)c(-c3ccc(C(F)(F)F)cc3F)nn2C[C@@H]1C [Example 124, 1-[(6S)-2-[2-fluoro-4-(trifluoromethyl)phenyl]-6-methyl-3-(pyridin-4-yl)-6,7-dihydropyrazolo[1,5-a]pyrazin-5(4H)-yl]prop-2-en-1-one]	0.859	2.08	30.4
C=CC(=O)N1Cc2c(-c3ccncc3)c(-c3cccc(C#N)c3)nn2C[C@H]1C [Example 126, 3-[(6R)-6-methyl-5-(prop-2-enoyl)-3-(pyridin-4-yl)-4,5,6,7-tetrahydropyrazolo[1,5-a]pyrazin-2-yl]benzonitrile]	12.4	4.52	86.5
C=CC(=O)N1Cc2c(-c3ccncc3)c(-c3cccc(C#N)c3)nn2C[C@@H]1C [Example 127, 3-[(6S)-6-methyl-5-(prop-2-enoyl)-3-(pyridin-4-yl)-4,5,6,7-tetrahydropyrazolo[1,5-a]pyrazin-2-yl]benzonitrile]	25.4	5.65	39
C=CC(=O)N1CCn2nc(-c3ccc(OC(F)F)cc3)c(-c3ccncc3)c2C1 [Example 128, 1-{2-[4-(difluoromethoxy)phenyl]-3-(pyridin-4-yl)-6,7-dihydropyrazolo[1,5-a]pyrazin-5(4H)-yl}prop-2-en-1-one]	3.62	13.8	139
C=CC(=O)N1CCn2nc(-c3ccc(OC(F)(F)F)cc3)c(-c3ccncc3)c2C1 [Example 129, 1-[3-(pyridin-4-yl)-2-[4-(trifluoromethoxy)phenyl]-6,7-dihydropyrazolo[1,5-a]pyrazin-5(4H)-yl]prop-2-en-1-one]	2.97	16	106
C=CC(=O)N1CCn2nc(-c3ccc(OCC)cc3)c(-c3ccncc3)c2C1 [Example 130, 1-[2-(4-ethoxyphenyl)-3-(pyridin-4-yl)-6,7-dihydropyrazolo[1,5-a]pyrazin-5(4H)-yl]prop-2-en-1-one]	6.69	45.5	980
